{"source": "patent US20250108036A1", "about": "“COMPOSITIONS FOR REMOVING SENESCENT CELLS AND USES THEREOF” (LIFECEUTIX CO., LTD., priority 2021, published 2025)", "key": {"[1]": {"system": "foreskin cells in which senescence was induced by doxorubicin", "assay": "CellTiter-Glo cell viability of doxorubicin-induced senescent foreskin cells (Examples 1-2, 10, 11, 13; Tables 4, 63, 65)", "assay_type": "cell-based, human", "conditions": "for viability at 1.1 µM / viability at 10 µM: Homo sapiens, 72 h, read-out: Survival (%); for viability at 10 µM: LX-112 10 μM", "procedure": "(§2) After 3 days, cell viability was measured using CellTiter-Glo Luminescent Cell Viability Assay (Promega) or light microscopy."}, "HMGN1": {"system": "HMGN1", "assay": "HMGN1 ELISA in culture medium of foreskin cells (Examples 10, 11; Tables 62, 63, 64)", "assay_type": "cell-based, human", "conditions": "for HMGN1 (pg/ml): senescent foreskin cells"}, "senescent foreskin cells": {"system": "senescent foreskin cells", "assay": "survival of senescent foreskin cells treated with medium supernatant (secreted fluid) of compound-killed cells (Example 13, Tables 68, 69)", "assay_type": "cell-based, human", "conditions": "for Survival (%): supernatant-treated cells: senescent cells, after 3 days", "procedure": "as §2\nDuring this additional culture, by checking with an optical microscope, etc., the medium supernatants containing secreted fluid from normally proliferating and senescent cells in which cell death was induced were obtained. The obtained medium supernatant was replaced with the medium of normally proliferating and senescent cells, respectively, and cell survival rate was measured after 3 days."}, "[2]": {"system": "foreskin cells in which senescence was not induced", "assay": "CellTiter-Glo growth of foreskin cells in which senescence was not induced (Tables 5, 12)", "conditions": "3 days", "procedure": "as §2"}, "p16, p21": {"system": "p16, p21", "assay": "qRT-PCR of p16 and p21 mRNA in replicative senescent foreskin cells (Example 4)", "assay_type": "cell-based, human", "conditions": "LX-112 3 μM; senescent untreated = 100%", "description": "In the same manner as Example 3, natural aging of human foreskin cells was induced, treated with LX-112 at a concentration of 3 μM, and the amounts of the mRNA of p16 and p21, aging-related markers, were analyzed by qRT-PCR (quantitative real-time PCR). As a control group, foreskin cells before senescence induction were used. Specifically, cells were collected and treated with TRIzol Reagent (purchased from Thermo Fisher Scientific) to extract total RNA. The concentration of extracted total RNA was quantified using Nanodrop (purchased from Micro Digital). Genomic DNA was removed from the extracted total RNA using SuperScript IV VILO Master Mix with ezDNase Enzyme (purchased from Thermo Fisher Scientific), and cDNA was prepared. Using the synthesized cDNA, using the housekeeping gene GAPDH as a standard, qRT-PCR for p16 and p21 was performed using SFCgreen I qPCR Master Mix (purchased from SFC Probe), and was analyzed with CFX Connect Real-Time PCR Detection System (purchased from Bio Rad). […] Table 14 calculates the mRNA amounts of p16 and p21 after senescence was induced to 100%, respectively, and compared them with the mRNA amounts of p16 and p21 after treatment with LX-112."}, "SA-β-gal": {"system": "SA-β-gal", "assay": "SA-β-gal staining of tissue sections of naturally aged mice (Example 7-3)", "assay_type": "in vivo, C57BL6J mice", "conditions": "stained area, LX-112 70 mg/kg oral daily 21 days", "description": "(§1) After 22-month-old female C57BL6J mice (purchased from KRIBB Laboratory Animal Resource Center) were adapted to the experimental environment for one week, the aged mice were randomized into an experimental group and a control group. 8-week-old mice that were not aged were used as controls. LX-112 was mixed with 0.5% CMC-Na solution (purchased from Sigma) and administered orally at a concentration of 70 mg/kg daily for 21 days. The control group was administered only the solution in the same volume. After drug administration was completed, the method described in each Example below was performed.\nThe mouse was sacrificed, tissue sections were prepared from the organ tissues of each region, and stained for an aging marker (SA-β-gal) in the same manner as Example 1-1. Specifically, fat was removed from the tissues of each area collected from mice and fixed in 4% formalin at room temperature for more than 24 hours. For cryopreservation, the cells were placed in 30% sucrose for more than 8 hours and then rapidly frozen in cryoprotectant OCT medium for cryosectioning. The rapidly frozen tissue was commissioned to Histoa, a company specializing in histopathology services, and frozen sections were produced. The prepared frozen tissue sections were cut to a thickness of 8 μm, sectioned on a slide cover, dried at room temperature for 30 minutes, and then stored at −80° C. until use. After staining the aging marker (SA-β-gal), the images were taken through an optical microscope, and the area of the stained area was calculated using the Image J program and quantified by normalizing it based on the total area. […] FIG. 2 is a photo result of staining of adipose tissue."}, "lipofuscin": {"system": "lipofuscin", "assay": "lipofuscin (Sudan Black B) staining of muscle of naturally aged mice (Example 7-4)", "assay_type": "in vivo, C57BL6J mice", "conditions": "stained area, LX-112 70 mg/kg oral daily 21 days", "description": "as §1\nMice was sacrificed and tissue sections from muscle tissue were prepared in the same manner as in Example 7-3. Lipofuscin is a degenerative abnormal complex of proteins and lipids produced in cell lysosomes with aging and is a marker of aging-related degeneration. The amount of lipofuscin was measured as follows: the sections were stained using Sudan Black B (purchased from Sigma) and photographed, and then the area of the stained area was calculated using the Image J program and quantified by normalizing it based on the total area."}}, "note": "Read-outs that look alike come from different tables or passages of the source.", "data": [{"compound": "COC(=O)c1ccc([C@H]2c3[nH]c4ccccc4c3C[C@H](C(=O)OC)N2C(=O)CCl)cc1", "note": "[LX-405]", "values": [{"measurement": "cell death, senescent cells", "setting": "[1]; 30 μM, 3 days", "result": "induced the death of most cells"}, {"measurement": "viability at 1.1 µM", "setting": "[1]; 1.1 μM test compound, doxorubicin-induced senescent foreskin cells, CellTiter-Glo, 0 μM = 100", "result": 4.9, "unit": "%"}, {"measurement": "activity at 30 µM", "setting": "HMGN1; Homo sapiens, 30 μM test compound, doxorubicin-treated foreskin cells, DMSO = 100, read-out: HMGN1", "result": 285, "unit": "%"}, {"measurement": "Survival (%)", "setting": "senescent foreskin cells; supernatant from compound-treated medium without cells (No Cells)", "result": "102.8 (±4.6) %"}, {"measurement": "Survival (%)", "setting": "senescent foreskin cells; supernatant from death-induced proliferating foreskin cells (compound 30 μM)", "result": "41.3 (±3.6) %"}, {"measurement": "Survival (%)", "setting": "senescent foreskin cells; supernatant from death-induced senescent foreskin cells (compound 30 μM)", "result": "52.7 (±0.1) %"}, {"measurement": "cell death, normally proliferating cells", "setting": "[2]; 30 μM", "result": "induced the death of most cells"}]}, {"compound": "O=c1c2ccccc2[se]n1CCn1[se]c2ccccc2c1=O", "note": "[LX-112, 1,2-[bis(1,2-benzisoselenazolone-3(2H)-ketone)]ethane]", "values": [{"measurement": "viability at 1.1 µM", "setting": "[1]; LX-112 1.1 μM, 3 days", "result": 67.2, "unit": "%"}, {"measurement": "viability at 1.1 µM", "setting": "[1]; LX-112 1.1 μM, senescent foreskin cells", "result": 67.2, "unit": "%"}, {"measurement": "viability at 10 µM", "setting": "[1]; 3 days", "result": 1, "unit": "%"}, {"measurement": "viability at 10 µM", "setting": "[1]; senescent foreskin cells", "result": 1, "unit": "%"}, {"measurement": "mRNA (%) p16", "setting": "p16, p21", "result": "43 (±4) %"}, {"measurement": "mRNA (%) p21", "setting": "p16, p21", "result": "39 (±7) %"}, {"measurement": "SA-β-gal (%) Kidney", "setting": "SA-β-gal", "result": "55 (±17) %"}, {"measurement": "SA-β-gal (%) Liver", "setting": "SA-β-gal", "result": "58 (±6) %"}, {"measurement": "SA-β-gal (%) Lung", "setting": "SA-β-gal", "result": "67 (±6) %"}, {"measurement": "SA-β-gal (%) Skin", "setting": "SA-β-gal", "result": "68 (±9) %"}, {"measurement": "SA-β-gal (%) eWAT", "setting": "SA-β-gal", "result": "38 (±7) %"}, {"measurement": "Lipofuscin (%) Muscle", "setting": "lipofuscin", "result": "71 (±6) %"}, {"measurement": "HMGN1 (pg/ml)", "setting": "HMGN1; 10 μM, culture medium after 6 hours", "result": "262.45 (±23.4) pg/ml"}, {"measurement": "HMGN1 secreted in the culture medium from dying senescent cells", "setting": "HMGN1; ABT-263 1 μM or LX-112 10 μM, 6 hours", "result": "greatly increased"}, {"measurement": "HMGN1 (pg/ml)", "setting": "HMGN1; LX-112 1.1 μM", "result": "129.7(±9.3) pg/ml"}, {"measurement": "HMGN1 (pg/ml)", "setting": "HMGN1; LX-112 10 μM", "result": "262.45 (±23.4) pg/ml"}, {"measurement": "death of senescent cells by medium supernatant (secreted fluid) of cells killed by the compound", "setting": "senescent foreskin cells; supernatant from normally proliferating or senescent cells, survival after 3 days", "result": "selectively induced the death of senescent cells"}, {"measurement": "Growth (%)", "setting": "[2]; Table 5, LX-112 1.1 μM, N0 (cell number before treatment) = 100%", "result": "201 (±8) %"}, {"measurement": "Growth (%)", "setting": "[2]; Table 5, LX-112 10 μM, N0 = 100%", "result": "123 (±8) %"}, {"measurement": "Growth (%)", "setting": "[2]; Table 12, LX-112 1.1 μM, N0 = 100%", "result": "206 (±15) %"}, {"measurement": "Growth (%)", "setting": "[2]; Table 12, LX-112 10 μM, N0 = 100%", "result": "122.7 (±16) %"}]}]}
